According to patent US9738932B2, “Biomarkers for cardiovascular side-effects induced by cox-2 inhibitory compounds” (FIRALIS SAS, priority 2005, dated 2017):

System: mRNA expression in cardiovascular tissues
Assay: Affymetrix GeneChip mRNA expression profiling of monkey tissues (iliac vein, pulmonary vein, aorta, carotid artery, heart) after two-week oral-gavage treatment
Details: iliac vein
[1] = group average (Vioxx without A60055)
[2] = group avg, Vioxx without A60055

Experimental: Administration of compounds. A two-week oral-gavage treatment with the Cox-2 specific inhibitor COX189 (Lumiracoxib®, Novartis) in comparison with rofecoxib (Vioxx®, Merck), and celecoxib (Celebrex®, Pharmacia/Pfizer), and with the nonselective NSAID, diclofenac (Voltaren®, Novartis) was performed. […] The test items were administered daily at doses of 100 mg/kg/day, except Vioxx® which was administered at 50 mg/kg/day.
Gene expression profiles. After a period of time (e.g., four weeks) of compound/drug administration, the treated animals are necropsied. 120 tissues are dissected and rapidly snap-frozen for genomics analysis. Organ samples are isolated for histopathological examinations and for gene expression localizations, such as by in situ hybridization.
Gene expression profiles have been generated using the Affymetrix microarray technology. (i) RNA extraction and purification: Briefly, total RNA was obtained by acid guanidinium thiocyanate-phenol-chloroform extraction (Trizol®, Invitrogen Life Technologies, San Diego, Calif.) from each frozen tissue section and the total RNA was then purified on an affinity resin (Rneasy®, Qiagen) according to the manufacturer's instructions. Total RNA was quantified by the absorbance at λ=260 nm (A260 nm) and the purity was estimated by the ratio A260 nm/A280 nm. Integrity of the RNA molecules was confirmed by non-denaturing agarose gel electrophoresis. RNA was stored at −80° C. until analysis. […] (ii) GeneChip® experiment: All GeneChip® experiments were conducted in the Genomics Factory EU following recommendations by the manufacturer of the GeneChip® system (Affymetrix, Expression Analysis Technical Manual (Affymetrix, Santa Clara, Calif., 2005). Human U133A genome arrays were used for transcript expression analysis. Double stranded cDNA was synthesized with a starting amount of approximately 5 μg full-length total RNA using the Superscript Choice System (Invitrogen Life Technologies) in the presence of a T7-(dT) 24 DNA oligonucleotide primer. Following synthesis, the cDNA was purified by phenol/chloroform/isoamyl alcohol extraction and ethanol precipitation. The purified cDNA was then transcribed in vitro using the BioArray® High Yield RNA Transcript Labeling Kit (ENZO) in the presence of biotinylated ribonucleotides form biotin labelled cRNA. The labelled cRNA was then purified on an affinity resin (Rneasy, Qiagen), quantified and fragmented. An amount of approximately 10 μg labelled cRNA was hybridized for approximately 16 hours at 45° C. to an expression probe array. The array was then washed and stained twice with streptavidin-phycoerythrin (Molecular Probes) using the GeneChip Fluidics Workstation 400 (Affymetrix). The array was then scanned twice using a confocal laser scanner (GeneArray Scanner®, Agilent) resulting in one scanned image. This resulting “.dat-file” was processed using the MASS program (Affymetrix) into a “.cel-file”. The “.cel file” was then transferred to tan Affymetrix GeneChip Laboratory Information Management System (LIMS) database, which is connected to a UNIX Sun Solaris server through a network filing system that allows for the average intensities for all probes cells (CEL file) to be downloaded into an Oracle database (NPGN). Raw data was converted to expression levels using a “target intensity” of 100. […] The data were checked for quality and loaded in the GeneSpring® software versions 5.0 (Silicon Genetics, Calif., US) for statistical analysis.
Quality control analysis of transcriptome data: The following quality measures were analysed for each sample: Scaling factor, background, percent present calls, AFFX-GAPDH 3′: AFFX-GAPDH 5′-ratio, AFFX-GAPDH 3′ variance, AFFX-Beta-actin 3′: AFFX-Beta-actin 5′-ratio.

O=C(O)Cc1ccccc1Nc1c(Cl)cccc1Cl [Voltaren]
2.0 fold: CXCL11 (211122_s_at) avg fold change vs control [2]
1.1 fold: ACE (209749_s_at) mRNA expression, Avg fold changes vs control [1] | BTN2A2 (205298_s_at) mRNA expression, Avg fold changes vs control [1] | CD2 (205831_at) mRNA expression, Avg fold changes vs control [1] | CYBB (203922_s_at) mRNA expression, Avg fold changes vs control [1] | HCLS1 (202957_at) mRNA expression, Avg fold changes vs control [1] | HEM1 (209734_at) mRNA expression, Avg fold changes vs control [1] | HLA-A (213932_x_at) mRNA expression, Avg fold changes vs control [1] | STAT1 (200887_s_at) mRNA expression, Avg fold changes vs control [1] | STAT3 (208992_s_at) mRNA expression, Avg fold changes vs control [1] | TMPO (209753_s_at) mRNA expression, Avg fold changes vs control [1] | BTN3A1 (207485_x_at) avg fold change vs control [2] | C1QB (202953_at) avg fold change vs control [2] | CD14 (201743_at) avg fold change vs control [2] | DUSP6 (208893_s_at) avg fold change vs control [2] | ECM1 (209365_s_at) avg fold change vs control [2]
1.9 fold: CD3D (213539_at) avg fold change vs control [2]
1.0 fold: BCL6 (215990_s_at) mRNA expression, Avg fold changes vs control [1] | GP6 (220336_s_at) mRNA expression, Avg fold changes vs control [1] | HLA-A (210514_x_at) mRNA expression, Avg fold changes vs control [1] | ICAM1 (202637_s_at) mRNA expression, Avg fold changes vs control [1] | PRKCBP1 (209048_s_at) mRNA expression, Avg fold changes vs control [1] | PRKCBP1 (209049_s_at) mRNA expression, Avg fold changes vs control [1] | SIGIRR (52940_at) mRNA expression, Avg fold changes vs control [1] | STAT1 (AFFX-HUMISGF3A/M97935_3_at) mRNA expression, Avg fold changes vs control [1] | TCIRG1 (204158_s_at) mRNA expression, Avg fold changes vs control [1] | TRB@ (210915_x_at) mRNA expression, Avg fold changes vs control [1] | 209813_x_at avg fold change vs control [2] | CLU (208791_at) avg fold change vs control [2] | CYBA (203028_s_at) avg fold change vs control [2] | FCGR1A (214511_x_at) avg fold change vs control [2]
2.1 fold: CXCL11 (210163_at) avg fold change vs control [2] | G1P2 (205483_s_at) avg fold change vs control [2]
1.2 fold: B2M (216231_s_at) mRNA expression, Avg fold changes vs control [1] | CD48 (204118_at) mRNA expression, Avg fold changes vs control [1] | CDC2 (210559_s_at) mRNA expression, Avg fold changes vs control [1] | HLA-E (200904_at) mRNA expression, Avg fold changes vs control [1] | TMSB10 (217733_s_at) mRNA expression, Avg fold changes vs control [1] | TNFRSF21 (218856_at) mRNA expression, Avg fold changes vs control [1] | TRB@ (213193_x_at) mRNA expression, Avg fold changes vs control [1] | AIF1 (209901_x_at) avg fold change vs control [2] | BTN3A3 (38241_at) avg fold change vs control [2] | C1QA (218232_at) avg fold change vs control [2] | C2 (203052_at) avg fold change vs control [2] | CYBB (203923_s_at) avg fold change vs control [2] | CYP3A5 (214234_s_at) avg fold change vs control [2] | HCK (208018_s_at) avg fold change vs control [2]
1.5 fold: FCER1G (204232_at) mRNA expression, Avg fold changes vs control [1] | AIF1 (213095_x_at) avg fold change vs control [2] | BTN3A3 (204821_at) avg fold change vs control [2] | CASP1 (209970_x_at) avg fold change vs control [2] | F2RL1 (206429_at) avg fold change vs control [2] | FCGR3A (204006_s_at) avg fold change vs control [2]
0.5 fold: HCA127 (220040_x_at) avg fold change vs control [2]
1.3 fold: CCR1 (205098_at) mRNA expression, Avg fold changes vs control [1] | PIK3CD (203879_at) mRNA expression, Avg fold changes vs control [1] | BCL3 (204908_s_at) avg fold change vs control [2] | BTN3A3 (204820_s_at) avg fold change vs control [2] | CASP1 (211367_s_at) avg fold change vs control [2] | CCNB2 (202705_at) avg fold change vs control [2] | CD74 (209619_at) avg fold change vs control [2] | CTSK (202450_s_at) avg fold change vs control [2] | CTSS (202902_s_at) avg fold change vs control [2] | CXCL9 (203915_at) avg fold change vs control [2] | CXCL10 (204533_at) avg fold change vs control [2] | CXCL12 (209687_at) avg fold change vs control [2] | CYP1B1 (202436_s_at) avg fold change vs control [2] | F13A1 (203305_at) avg fold change vs control [2]
1.8 fold: CCL8 (214038_at) avg fold change vs control [2] | GZMB (210164_at) avg fold change vs control [2]
0.6 fold: THY1 (213869_x_at) mRNA expression, Avg fold changes vs control [1]
9.0 fold: CCL2 (216598_s_at) avg fold change vs control [2]
0.7 fold: FKBP11 (219117_s_at) mRNA expression, Avg fold changes vs control [1]
1.6 fold: CCL18 (209924_at) avg fold change vs control [2] | CCL19 (210072_at) avg fold change vs control [2] | CX3CR1 (205898_at) avg fold change vs control [2]
0.8 fold: EMP3 (203729_at) mRNA expression, Avg fold changes vs control [1] | FKBP11 (219118_at) mRNA expression, Avg fold changes vs control [1] | HLA-C (211799_x_at) mRNA expression, Avg fold changes vs control [1]
1.4 fold: CD53 (203416_at) mRNA expression, Avg fold changes vs control [1] | FCGR2A (203561_at) mRNA expression, Avg fold changes vs control [1] | HLA-F (221978_at) mRNA expression, Avg fold changes vs control [1] | PTPN7 (204852_s_at) mRNA expression, Avg fold changes vs control [1] | B2M (201891_s_at) avg fold change vs control [2] | C1R (212067_s_at) avg fold change vs control [2] | CCL3 (205114_s_at) avg fold change vs control [2] | CD8A (205758_at) avg fold change vs control [2] | CMAH (210571_s_at) avg fold change vs control [2] | CTSC (201487_at) avg fold change vs control [2] | ECGF1 (204858_s_at) avg fold change vs control [2]
2.2 fold: CCL5 (1405_i_at) avg fold change vs control [2]
1.7 fold: C1S (208747_s_at) avg fold change vs control [2]
0.9 fold: FCGRT (218831_s_at) mRNA expression, Avg fold changes vs control [1] | IL13RA1 (210904_s_at) mRNA expression, Avg fold changes vs control [1] | CYP11B1 (214630_at) avg fold change vs control [2] | HFE (210864_x_at) avg fold change vs control [2]
2.4 fold: C4A (208451_s_at) avg fold change vs control [2]
